How the values were obtained:
Assay type in all cases: binding, murine
[1] = molecular target: T1, GST-PDZI′+II′ (Grasp55 residues 1 to 208) (Mus musculus, UniProt Q99JX3); test: HTRF measurement of interaction of biotinylated C-terminal peptides with GST-PDZI′+II′; conditions: biotinylated JAM-C peptide, GST-PDZI′+II′
T1 construct: and 1 to 208 corresponding respectively to the PDZI′, PDZII′ and PDZI′+II′ constructs; made in house; host or cells: bacteria Rosetta
Procedure: (§1) To refine and extend the results obtained by yeast two hybrid, an Homogenous Time Resolved Fluorescence (HTRF) assay have been set-up to measure interactions of various peptides with recombinant GST proteins corresponding to different regions of Grasp55.
(§2) Briefly, the technique consisted in incubating 18 h at 4° C. the biotinylated-Cterminal peptides (SEQ ID NO: 26 to 34) at the concentration of 1.9*10^−7M with the GST-fusion protein, the terbium-coupled anti-GST antibody (8*10^−10M each) and the d2-coupled streptavidin (4*10^−8M) (both from Cisbio), in 0.1 mL of Hepes 0.05M, NaCl 0.15M BSA 0.1% pH 7.2. In some experiments, competing peptide or chemicals were added to the incubation mix at the indicated concentration. After incubation, microtiter plates (Costar #3693) were red using PolarScan Omega (BMG Labtech) equipped for HTRF measurements. Upon excitation at 320 nm, a 620 nm fluorescence emission is produced by the donor terbium that in turn excites a 665 nm light emission by a Streptavidin-d2 (acceptor) bound to the Biotinylated interacting Peptide if the latter is interacting with the donor. The […] R ratio is obtained and a Delta F is computed as: [(Rsample−RNSB)/RNSB]*100 where RNSB is the Non Specific Background signal determined in incubates where the GST-fusion protein was omitted.
(§3) Having shown that HTRF measurement of interaction is a reliable technology to identify inhibitors of interaction. A screen of a chemical compound library provided by MRCt has been initiated. The screening consisted in the same HTRF technique used in Example 7 except that compounds from the library were added in the incubation mix at the final concentration of 6.6×10^−5M. […] Since such a result could be either due to a specific inhibition of the JAM-C peptide interaction to the recombinant Grasp55 PDZ domains or to a non-specific inhibition of the FRET signal between donor and acceptor in HTRF technology, the twenty selected compounds have been further tested. Indeed, compounds could potentially interfere with the binding of the anti-GST antibody terbium-labeled to the GST of the fusion protein, the binding of Streptavidin-d2 to the biotinylated peptide or promote strong interference at 320, […] or 665 nm. Thus, the putative hits obtained were screened for non-specific inhibition. To this end, the GST-PDZI′+II′ recombinant protein was biotinylated using Sulfo-NHS Biotin according to manufacturer instructions (Pierce). This allows designing an HTRF assay in which the d2-coupled streptavidin (acceptor) and the terbium-coupled anti-GST antibody are directly bound to recombinant GST-PDZI′+II′ protein and produce DeltaF signal independently of the biotinylated peptide. The twenty selected compounds were thus tested in this assay to eliminate those giving false inhibition of the HTRF signals while inhibitors of Biotinylated peptide interaction with GST-PDZI′+II′ should not interfere in this assay.

[2] = molecular target: T2, GST-PDZI′ (Grasp55 residues 1 to 107) (Mus musculus, UniProt Q99JX3); test: HTRF measurement of interaction of biotinylated C-terminal peptides with GST-PDZI′; conditions: biotinylated JAM-C peptide, GST-PDZI′
T2 construct: GST fusion proteins encompassing residues 1 to 107; made in house; host or cells: bacteria Rosetta
Procedure: as §1, §2, §3

[3] = molecular target: T3, GST-GraspFL (GST-Grasp55 full length) (Mus musculus, UniProt Q99JX3); test: HTRF competition with GST-Grasp55 full length; conditions: biotinylated JAM-C peptide
T3 construct: GST-GraspFL (GST-Grasp55 full length); made in house; host or cells: bacteria Rosetta
Procedure: as §1
as §2, with “omitted. […]” for “omitted.”

EC50 of competition of the HTRF signal [1]: low micromolar range | increase in EC50 with GST-PDZI′ versus GST-PDZI′+II′ and GST-GraspFL [2]: twenty fold increase in EC50 | EC50 of competition of the HTRF signal [3]: low micromolar range
Sequence: NYIRTSEEGDFRHKSSFVI [unlabelled peptide]

Source: patent publication US9107936B2, “Antagonists of GRASP55 for use as a medicament” (Institut National de la Sante et de la Recherche Medicale …, priority 2012, dated 2015)
